Test results as given in EP0745595A1, “3-(3-Aryloxyphenyl)-1-(substituted methyl)-s-triazine-2,4,6-oxo or thiotrione herbicidal agents” (American Cyanamid Company, priority 1995, dated 1996).

Key:
Format in all cases: in vivo
[1] = tested on: ORYZA SATIVA, L. TEBONNET; experiment: Rice tolerance to post-transplant applications under flooded paddy conditions, ORYSAT (Rice, Tebonnet); conditions: post-transplant rice, 3-4 weeks after treatment
In short: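 Visual 0-9 rating against untreated control (stand, vigor, malformation, size, chlorosis, overall appearance), taken 3-4 weeks after treatment. Flooded silt loam, water at 1.5-3 cm; two 10-day-old seedlings per pot; compound applied to flooded soil surface 3 days post-transplant at ~0.5-0.063 kg/ha.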

IPOMOEA SPP. [2] = experiment: Preemergence herbicidal evaluation, IPOSS (Morningglory spp.); conditions: rated four to five weeks after treatment
Excerpt: (§1) Results of herbicide evaluation are expressed on a rating scale (0-9). The scale is based upon a visual observation of plant stand, vigor, malformation, size, chlorosis and overall plant appearance as compared with a control.
(§2) The preemergence herbicidal activity of the test compounds of the present invention is exemplified by the following tests in which the seeds of a variety of monocotyledonous and dicotyledonous plants are separately mixed with potting soil and planted on top of approximately one inch of soil in separate pint cups. […] The treated cups are then placed on greenhouse benches, watered and cared for in accordance with conventional greenhouse procedures. From four to five weeks after treatment, the tests are terminated and each cup is examined and rated according to the rating system provided in Example 40.
(§3) The compounds evaluated are reported by compound number given in Example 40.

CYPERUS IRIA = experiment: Preemergence weed control under flooded paddy conditions, CYPIR (Rice Flatsedge); conditions: preemergence, 3-4 weeks after treatment
In short: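 This preemergence test mimicked flooded paddy conditions: rice flatsedge propagules were sown in the upper 0.5 cm of silt loam in undrained 32 oz. containers (10.5 cm diameter), with water held 1.5 to 3 cm over the soil. After normal greenhouse care, plants were scored 0-9 for stand, vigor, malformation, size, chlorosis and appearance relative to controls.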

[3] = tested on: AMBROSIA ARTEMISIIFOLIA, L.; experiment: Preemergence herbicidal evaluation, AMBEL (Ragweed, Common); conditions: rated four to five weeks after treatment
In short: (§4)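 Greenhouse preemergence test; treated soil cups received compound in aqueous acetone (about 0.125 to 0.50 kg/ha) right after sowing and were assessed visually 4-5 weeks later on a 0-9 scale compared with control plants.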

[4] = tested on: CYPERUS SEROTINUS, ROTTB.; experiment: Preemergence weed control under flooded paddy conditions, CYPSE (Flatsedge); conditions: preemergence, 3-4 weeks after treatment
In short: (§5)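 Visual 0-9 score (stand, vigor, malformation, size, chlorosis, appearance vs untreated control) taken 3-4 wk after treatment. Test compounds were added into flood water (1.5-3 cm over silt loam) as 50/50 v/v aqueous/acetone, equivalent to about 0.5-0.063 kg/ha a.i.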

SAGITTARIA PYGMAEA, L. = experiment: Preemergence weed control under flooded paddy conditions, SAGPY (Arrowhead (Pygmaea)); conditions: preemergence, 3-4 weeks after treatment
In short: as §5

[5] = tested on: ECHINOCHLOA CRUS-GALLI, (L) BEAU; experiment: Preemergence herbicidal evaluation, ECHCG (Barnyardgrass); conditions: rated four to five weeks after treatment
In short: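 In this preemergence herbicide test, cups holding seeds of ECHCG sown in potting soil over roughly one inch of soil were treated and then grown under conventional greenhouse care. Tests were ended four to five weeks after treatment, and injury was scored 0-9 from stand, vigor, malformation, size, chlorosis and overall appearance relative to a control.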

[6] = tested on: ABUTILON THEOPHRASTI, MEDIC.; experiment: Preemergence herbicidal evaluation, ABUTH (Velvetleaf); conditions: rated four to five weeks after treatment
Excerpt: as §1, §2, §3

CASSIA OBTUSIFOLIA, L. [7] = experiment: Preemergence herbicidal evaluation, CASOB (Sicklepod); conditions: rated four to five weeks after treatment
In short: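 Preemergence herbicidal activity against sicklepod was assessed by planting seed mixed with potting soil atop about one inch of soil in pint cups. After treatment the cups were watered and handled per standard greenhouse practice. Tests ended four to five weeks later, with plant stand, vigor, malformation, size, chlorosis and overall appearance scored 0-9 relative to a control.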

[8] = tested on: SETARIA VIRIDIS, (L) BEAU; experiment: Preemergence herbicidal evaluation, SETVI (Foxtail, Green); conditions: rated four to five weeks after treatment
Excerpt: as §1, §2, §3

ZEA MAYS L. = experiment: Preemergence herbicidal evaluation, ZEAMX (Corn, Field); conditions: rated four to five weeks after treatment
In short: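 Preemergence herbicidal activity on field corn: seeds in potting soil were sown atop roughly one inch of soil in separate pint cups, treated, and grown under standard greenhouse care. Four to five weeks post-treatment, stand, vigor, malformation, size, chlorosis and overall appearance were compared with a control and scored 0-9.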

CHENOPODIUM ALBUM, L. [9] = experiment: Preemergence herbicidal evaluation, CHEAL (Lambsquarters, Common); conditions: rated four to five weeks after treatment
In short: as §4

IPOMOEA SPP. [10] = experiment: Postemergence herbicidal evaluation, IPOSS (Morningglory spp.)
In short: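 In this greenhouse postemergence herbicide test on Ipomoea spp. (morningglory), compounds in 50/50 acetone/water with 0.5% TWEEN®20 were sprayed at 40 psi onto seedlings about two weeks old grown in jiffy flats. After four to five weeks, injury was scored on a 0-9 scale covering stand, vigor, malformation, size, chlorosis and overall appearance versus control, with repeat tests averaged.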

[11] = tested on: TRITICUM AESTIVUM, CV. APOLLO; experiment: Preemergence herbicidal evaluation, TRZAWO (Wheat, Winter, CV. APOLLO); conditions: rated four to five weeks after treatment
In short: as §4

[12] = tested on: SETARIA VIRIDIS, (L) BEAU; experiment: Postemergence herbicidal evaluation, SETVI (Foxtail, Green); set-up: key to SETVI rating / Herbicidal effect rating, SETVI / SETVI: 0-9 visual rating scale vs untreated control
In short: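 Postemergence foliar spray at approximately 0.125–0.500 kg/ha onto two-week seedlings; greenhouse hold, then 0–9 visual injury rating after 4–5 weeks.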

[13] = tested on: GLYCINE MAX(L) MERR. CV. WILLIAMS; experiment: Preemergence herbicidal evaluation, GLXMAW (Soybean, Williams); conditions: rated four to five weeks after treatment
In short: as §4

[14] = tested on: ORYZA SATIVA, L. TEBONNET; experiment: Preemergence herbicidal evaluation, ORYSAT (Rice, Tebonnet); conditions: rated four to five weeks after treatment
Excerpt: as §1, §2, §3

CASSIA OBTUSIFOLIA, L. [15] = experiment: Postemergence herbicidal evaluation, CASOB (Sicklepod); set-up: key to CASOB rating / Herbicidal effect rating, CASOB / CASOB: 0-9 visual rating scale vs untreated control
In short: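 Ratings (0-9) reflect visual stand, vigor, malformation, size and chlorosis compared with untreated plants, assessed 4-5 weeks after postemergence spraying. Treatment was applied to roughly two-week-old seedlings at about 0.125-0.500 kg/ha in acetone/water with 0.5% Tween 20; replicate tests were averaged.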

CHENOPODIUM ALBUM, L. [16] = experiment: Postemergence herbicidal evaluation, CHEAL (Lambsquarters, Common)
In short: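 Postemergence herbicidal activity on Chenopodium album was tested by spraying two-week-old seedlings grown in jiffy flats with compound in acetone/water (50/50) plus 0.5% TWEEN®20, using a 40 psi nozzle. Four to five weeks after treatment, stand, vigor, malformation, size, chlorosis and overall appearance were scored 0-9 relative to controls, with repeat tests averaged.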

With `COC(=O)Cn1c(=O)n(C)c(=O)n(-c2cc(Oc3c(Cl)cccc3Cl)ccc2[N+](=O)[O-])c1=O` [Compound 37, Methyl 3-[5-(2,6-dichlorophenoxy)-2-nitrophenyl]tetrahydro-5-methyl-2,4,6-trioxo-s-triazine-1(2H)-acetate] the “Herbicidal effect rating, ORYSAT” value ([1]; 0.063 kg/ha) was 0.0, the “Herbicidal effect rating, ORYSAT” value ([1]; 0.125 kg/ha) was 1.0 and the “Herbicidal effect rating, ORYSAT” value ([1]; 0.250 kg/ha) was 1.0. For the same compound, the “Herbicidal effect rating, ORYSAT” value ([1]; 0.500 kg/ha) was 2.0, the IPOSS herbicidal rating (IPOMOEA SPP. [2]; Rate 0.125 kg/ha) was 0.0 and the IPOSS herbicidal rating (IPOMOEA SPP. [2]; Rate 0.250 kg/ha) was 0.0. The IPOSS herbicidal rating (IPOMOEA SPP. [2]; Rate 0.500 kg/ha) was 0.0, the “Herbicidal effect rating, CYPIR” value (CYPERUS IRIA; 0.063 kg/ha) was 0.0 and the “Herbicidal effect rating, CYPIR” value (CYPERUS IRIA; 0.125 kg/ha) was 0.0. For the same compound, the “Herbicidal effect rating, CYPIR” value (CYPERUS IRIA; 0.250 kg/ha) was 0.0, the “Herbicidal effect rating, CYPIR” value (CYPERUS IRIA; 0.500 kg/ha) was 0.0 and the AMBEL herbicidal rating ([3]; Rate 0.125 kg/ha) was 0.0. For the same compound, the AMBEL herbicidal rating ([3]; Rate 0.250 kg/ha) was 0.0, the AMBEL herbicidal rating ([3]; Rate 0.500 kg/ha) was 0.0 and the “Herbicidal effect rating, CYPSE” value ([4]; 0.063 kg/ha) was 0.0. The “Herbicidal effect rating, CYPSE” value ([4]; 0.125 kg/ha) was 0.0, the “Herbicidal effect rating, CYPSE” value ([4]; 0.250 kg/ha) was 0.0 and the “Herbicidal effect rating, CYPSE” value ([4]; 0.500 kg/ha) was 0.0. The “Herbicidal effect rating, SAGPY” value (SAGITTARIA PYGMAEA, L.; 0.063 kg/ha) was 0.0, the “Herbicidal effect rating, SAGPY” value (SAGITTARIA PYGMAEA, L.; 0.125 kg/ha) was 0.0 and the “Herbicidal effect rating, SAGPY” value (SAGITTARIA PYGMAEA, L.; 0.250 kg/ha) was 0.0. The “Herbicidal effect rating, SAGPY” value (SAGITTARIA PYGMAEA, L.; 0.500 kg/ha) was 0.0, the ECHCG herbicidal rating ([5]; Rate 0.125 kg/ha) was 0.0 and the ECHCG herbicidal rating ([5]; Rate 0.250 kg/ha) was 0.0. The ECHCG herbicidal rating ([5]; Rate 0.500 kg/ha) was 0.0, the ABUTH herbicidal rating ([6]; Rate 0.125 kg/ha) was 0.0 and the ABUTH herbicidal rating ([6]; Rate 0.250 kg/ha) was 0.0. For the same compound, the ABUTH herbicidal rating ([6]; Rate 0.500 kg/ha) was 0.0, the CASOB herbicidal rating (CASSIA OBTUSIFOLIA, L. [7]; Rate 0.125 kg/ha) was 0.0 and the CASOB herbicidal rating (CASSIA OBTUSIFOLIA, L. [7]; Rate 0.250 kg/ha) was 0.0. It also gave a CASOB herbicidal rating (CASSIA OBTUSIFOLIA, L. [7]; Rate 0.500 kg/ha) of 0.0, an SETVI herbicidal rating ([8]; Rate 0.125 kg/ha) of 0.0 and an SETVI herbicidal rating ([8]; Rate 0.250 kg/ha) of 0.0. It also gave an SETVI herbicidal rating ([8]; Rate 0.500 kg/ha) of 0.0.
`CC(C)OC(=O)Cn1c(=O)n(C)c(=O)n(-c2cc(Oc3ncc(C(F)(F)F)cc3Cl)ccc2Br)c1=O` [Compound 44] showed a ZEAMX herbicidal rating (ZEA MAYS L.; Rate 0.125 kg/ha) of 0.0, a ZEAMX herbicidal rating (ZEA MAYS L.; Rate 0.250 kg/ha) of 0.0 and a ZEAMX herbicidal rating (ZEA MAYS L.; Rate 0.500 kg/ha) of 0.0. For the same compound, the CHEAL herbicidal rating (CHENOPODIUM ALBUM, L. [9]; Rate 0.125 kg/ha) was 9.0, the CHEAL herbicidal rating (CHENOPODIUM ALBUM, L. [9]; Rate 0.250 kg/ha) was 9.0 and the CHEAL herbicidal rating (CHENOPODIUM ALBUM, L. [9]; Rate 0.500 kg/ha) was 9.0. For the same compound, the “Herbicidal effect rating, ORYSAT” value ([1]; 0.063 kg/ha) was 1.0, the “Herbicidal effect rating, ORYSAT” value ([1]; 0.125 kg/ha) was 1.0 and the “Herbicidal effect rating, ORYSAT” value ([1]; 0.250 kg/ha) was 2.0. The “Herbicidal effect rating, ORYSAT” value ([1]; 0.500 kg/ha) was 3.0, the AMBEL herbicidal rating ([3]; Rate 0.125 kg/ha) was 0.0 and the AMBEL herbicidal rating ([3]; Rate 0.250 kg/ha) was 0.0. It also gave an AMBEL herbicidal rating ([3]; Rate 0.500 kg/ha) of 0.0, an IPOSS rating (IPOMOEA SPP. [10]; Rate 0.125 kg/ha) of 9.0 and an IPOSS rating (IPOMOEA SPP. [10]; Rate 0.250 kg/ha) of 9.0. It also gave an IPOSS rating (IPOMOEA SPP. [10]; Rate 0.500 kg/ha) of 9.0, a TRZAWO herbicidal rating ([11]; Rate 0.125 kg/ha) of 0.0 and a TRZAWO herbicidal rating ([11]; Rate 0.250 kg/ha) of 0.0. It also gave a TRZAWO herbicidal rating ([11]; Rate 0.500 kg/ha) of 0.0, an SETVI rating ([12]; Rate 0.125 kg/ha) of 9.0 and an SETVI rating ([12]; Rate 0.250 kg/ha) of 9.0. The SETVI rating ([12]; Rate 0.500 kg/ha) was 9.0, the GLXMAW herbicidal rating ([13]; Rate 0.125 kg/ha) was 0.0 and the GLXMAW herbicidal rating ([13]; Rate 0.250 kg/ha) was 0.0. The GLXMAW herbicidal rating ([13]; Rate 0.500 kg/ha) was 0.0, the ORYSAT herbicidal rating ([14]; Rate 0.125 kg/ha) was 0.0 and the ORYSAT herbicidal rating ([14]; Rate 0.250 kg/ha) was 0.0. It also gave an ORYSAT herbicidal rating ([14]; Rate 0.500 kg/ha) of 0.0, a CASOB rating (CASSIA OBTUSIFOLIA, L. [15]; Rate 0.125 kg/ha) of 9.0 and a CASOB rating (CASSIA OBTUSIFOLIA, L. [15]; Rate 0.250 kg/ha) of 9.0. For the same compound, the CASOB rating (CASSIA OBTUSIFOLIA, L. [15]; Rate 0.500 kg/ha) was 9.0, the CHEAL rating (CHENOPODIUM ALBUM, L. [16]; Rate 0.125 kg/ha) was 9.0 and the CHEAL rating (CHENOPODIUM ALBUM, L. [16]; Rate 0.250 kg/ha) was 9.0. The CHEAL rating (CHENOPODIUM ALBUM, L. [16]; Rate 0.500 kg/ha) was 9.0 and the CASOB herbicidal rating (CASSIA OBTUSIFOLIA, L. [7]; Rate 0.500 kg/ha) was 0.0.
